Patent US5760034A, “Heterocyclic substituted naphthyridinones and methods and compositions employing them” (Schering Corporation, priority 1992, dated 1998)

What was measured:
SRS-A release = assay: inhibition of leukotriene (SRS-A) release in vitro, lung fragments of sensitized guinea pigs challenged with ovalbumin; format: cell-based; settings: 12 min preincubation, 20 μg/ml ovalbumin challenge 15 min; for inhibition at 10 µM: Cavia porcellus, guinea pig lung fragments
Protocol: In one such test procedure, the anti-allergy method of this invention is identified by tests which measure a compound's inhibition of leukotriene release in sensitized guinea pigs. Male Hartley guinea pigs (250-300 g) are sensitized with 5 mg ovalbumin injected i.p. and 5 mg injected s.c. in 1 ml saline on day 1 and 5 mg ovalbumin injected i.p. on day 4. The sensitized animals are used 3-4 weeks later at which time they weigh 450-500 g. Sensitized guinea pigs are killed by a blow to the head and the lungs removed and cleaned of visible connective tissue, trachea and large blood vessels. The lungs from individual animals are sliced into fragments approximately 1 mm in thickness using a McIlwain tissue chopper and then washed with oxygenated Tyrode's buffer. Weighed aliquots (approximately 400 mg wet weight) of lung are transferred into vials containing 2 ml of fresh Tyrode's solution (containing 10 mM cysteine) and incubated in the presence or absence of test compound for 12 min at 37° C. The tissues are then challenged with 20 μg ovalbumin/ml (final concentration) and incubated for 15 min.
To measure leukotriene release, an aliquot of supernatant fluid is extracted with 4 volumes of 100% ethanol. After removal of the precipitated protein, the leukotriene content is measured by a radioimmunoassay using [^3 H]LTC4 and antiserum obtained from New England Nuclear. […] Percent inhibition of lekotriene release is calculated by comparing for each lung the release in the presence of the test compound to that in the absence of test compound.

sensitized guinea pigs = assay: suppression of anaphylactic bronchospasm in ovalbumin-sensitized guinea pigs; format: in vivo, guinea pig; settings: 5 mg/kg, orally 2 hours before ovalbumin challenge; peak increase in intratracheal pressure within 15 minutes vs vehicle
Protocol: Male Hartley guinea pigs (250-300 g) are sensitized with 5 mg ovalbumin injected i.p. and 5 mg injected s.c. in 1 ml saline on day 1 and 5 mg ovalbumin injected i.p. on day 4. The sensitized animals are used 3-4 weeks later at which time they weigh 450-500 g. The sensitized guinea pigs are fasted overnight and the following morning are anesthetized with 0.9 ml/kg i.p. of dialurethane (0.1 g/ml diallylbarbituric acid, 0.4 g/ml ethylurea and 0.4 g/ml urethane). The trachea are cannulated and the animals are ventilated by a Harvard® rodent respirator at 50 strokes/minute with a stroke volume of 5 ml. A side arm to the tracheal cannula is connected to a pressure transducer (Harvard) to obtain a continuous measure of intratracheal pressure which is recorded on a polygraph (Harvard). The jugular vein is cannulated for the i.v. administration of substances. The sensitized guinea pigs are injected i.v. with 1 mg/kg propranolol, 5 mg/kg indomethacin and 2 mg/kg mepyramine given together in a volume of 1 ml/kg. […] Bronchoconstriction is measured as the peak increase in intratracheal pressure occurring within 15 minutes after antigen challenge.
Test compounds are administered orally 2 hours before challenge with ovalbumin. Suppression of anaphylactic bronchospasm is expressed as a percent inhibition of the peak increase in intratracheal pressure by comparison to a vehicle-treated control group.

| Molecule | Inhibition of SRS-A release in vitro - Guinea Pig Lung 10 μM (SRS-A release) [%] | inhibition at 10 µM (SRS-A release) [%] | Inhibition of anaphylactic bronchospasm, % Inhibition (sensitized guinea pigs) [%] |
| --- | --- | --- | --- |
| 3-[1,2-Dihydro-3-(4-morpholinyl)-2-oxo-1,8-naphthyridin-1-yl]benzonitrile | 66 |  |  |
| O=c1c(N2CCCC2)cc2cccnc2n1-c1ccccc1 [3-(1-pyrrolidinyl)-1-phenyl-1,8-naphthyridin-2(1H)-one] |  | 34 | 61 |
| N#Cc1cccc(-n2c(=O)c(N3CCCC3)cc3cccnc32)c1 [3-(1-Pyrrolidinyl)-1-(3-cyanophenyl)-1,8-naphthyridin-2-(1H )-one] |  | 43 |  |
| O=c1c(N2CCOCC2)cc2cccnc2n1-c1ccccc1 [3-(4-Morpholinyl)-1-phenyl-1,8-naphthyridin-2(1H )-one] |  | 65 | 93 |
| O=c1c(N2CCCC2)cc2cccnc2n1-c1cccc(C(F)(F)F)c1 [3-(1-pyrrolidinyl)-1-(3-trifluoromethylphenyl)-1,8-naphthyridin-2(1H)-one] |  | 46 |  |
| 3-[3-(Hexahydro-1H-azepin-1-yl)-1,2-dihydro-2-oxo-1,8-naphthyridin-1-yl]-benzo-nitrile | 46 |  |  |
